Our source for the IC50, Dmax and DC50 values is patent publication US12139492B2 (Endotarget Inc., priority 2021, dated 2024).

SMILES strings stand for the structures.

Common to all, as to format: cell-based
One experiment relates to Mino cells. Nature of the experiment: Antiproliferative effect, MTS cell viability assay, Mino cells. As to conditions: Homo sapiens, MINO, Mino mantle cell lymphoma cells; read-out: IC50 (anti-proliferation) Mino cells. Put shortly: (§1)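 Cells were exposed to compound at 0, 0.001, 0.01, 0.1, 1 and 10 μM for 72 h. Viability was then measured by MTS assay, reading formazan produced by metabolically active cells as absorbance at 490 nm.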

Another experiment concerns JeKo-1 cells. Nature of the experiment: Antiproliferative effect, MTS cell viability assay, JeKo-1 cells. The note with it: Homo sapiens; JeKo-1 mantle cell lymphoma cells; read-out: IC50 (anti-proliferation) JeKO-1 cells. In outline:
as §1
In general terms: Formazan colour is commonly taken as a measure of viable cells.

In another experiment the target is BTK (Homo sapiens, UniProt Q06187). Nature of the experiment: BTK degradation, DC50 and Dmax of Table 1 (cell line not given). The note with it: for DC50: concentration giving 50% reduction of BTK expression level. The arrangement: endogenous in cells.
Sequence of BTK (Q06187 whole entry): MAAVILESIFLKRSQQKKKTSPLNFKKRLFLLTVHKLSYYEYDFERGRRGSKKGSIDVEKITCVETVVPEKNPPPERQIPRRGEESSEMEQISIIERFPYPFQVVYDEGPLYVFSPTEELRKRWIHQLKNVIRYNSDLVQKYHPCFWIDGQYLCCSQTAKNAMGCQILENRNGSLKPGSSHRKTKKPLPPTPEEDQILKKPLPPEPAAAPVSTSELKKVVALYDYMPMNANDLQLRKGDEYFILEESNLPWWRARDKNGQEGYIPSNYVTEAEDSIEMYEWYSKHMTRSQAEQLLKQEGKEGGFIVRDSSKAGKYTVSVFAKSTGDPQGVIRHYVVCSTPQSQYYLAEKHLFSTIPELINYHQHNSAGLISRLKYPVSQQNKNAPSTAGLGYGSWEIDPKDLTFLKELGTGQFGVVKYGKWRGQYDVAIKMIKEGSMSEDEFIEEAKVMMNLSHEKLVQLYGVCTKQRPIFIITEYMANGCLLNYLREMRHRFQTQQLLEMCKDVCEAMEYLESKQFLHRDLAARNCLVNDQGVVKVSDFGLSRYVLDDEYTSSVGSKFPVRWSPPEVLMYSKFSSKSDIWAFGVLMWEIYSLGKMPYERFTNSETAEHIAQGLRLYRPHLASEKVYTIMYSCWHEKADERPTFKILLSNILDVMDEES

Usually Dmax stands for the greatest extent of degradation seen. Usually DC50 stands for the midpoint of the concentration-degradation curve. Read a high DC50 as degradation only at high concentration. For the compound `Nc1ncnc2c1c(-c1ccc(Oc3ccccc3)cc1)nn2C1CCN(C(=O)N2CCC(N3CCC(c4ccc5c(c4)CN(C4CCC(=O)NC4=O)C5=O)CC3)CC2)CC1` (stereo not shown) [Compound 84, 3-(5-(1′-(4-(4-amino-3-(4-phenoxyphenyl)-1H-pyrazolo[3,4-d]pyrimidin-1-yl)piperidine-1-carbonyl)-[1,4′-bipiperidin]-4-yl)-1-oxoisoindolin-2-yl)piperidine-2,6-dione], the IC50 in the experiment on Mino cells was over 10000 nM. Further, the IC50 in the experiment with JeKo-1 cells was over 10000 nM. At BTK, this compound displayed a Dmax of over 75% and a DC50 of over 50 nM.
On to `Nc1ncnc2c1c(-c1ccc(Oc3ccccc3)cc1)nn2C1CCN(C(=O)N2CCN(CCCN3CCN(c4ccc5c(c4)CN(C4CCC(=O)NC4=O)C5=O)CC3)CC2)CC1` (stereo not shown) [Compound 120, 3-(5-(4-(3-(4-(4-(4-amino-3-(4-phenoxyphenyl)-1H-pyrazolo[3,4-d]pyrimidin-1-yl)piperidine-1-carbonyl)piperazin-1-yl)propyl)piperazin-1-yl)-1-oxoisoindolin-2-yl)piperidine-2,6-dione], for which the IC50 with Mino cells was over 10000 nM. For the same compound, the IC50 with JeKo-1 cells is over 10000 nM. Also, on BTK, the Dmax was over 75% and the DC50 was over 50 nM.
With `Nc1ncnc2c1c(-c1ccc(Oc3ccccc3)cc1)nn2[C@@H]1CCCN(C2CCN(C(=O)N3CCN(CCCC4CCN(c5ccc6c(c5)CN(C5CCC(=O)NC5=O)C6=O)CC4)CC3)CC2)C1` (stereo partly drawn) [Compound 190, 3-(5-(4-(3-(4-((R)-3-(4-amino-3-(4-phenoxyphenyl)-1H-pyrazolo[3,4-d]pyrimidin-1-yl)-[1,4′-bipiperidine]-1′-carbonyl)piperazin-1-yl)propyl)piperidin-1-yl)-1-oxoisoindolin-2-yl)piperidine-2,6-dione], in the experiment with Mino cells, the IC50 is over 10000 nM. Moreover, the IC50 with JeKo-1 cells was over 10000 nM. On BTK, this compound yielded a maximal degradation (Dmax) of over 50% and a half-maximal degradation concentration (DC50) of over 50 nM.
In the case of `Nc1ncnc2c1c(-c1ccc(Oc3ccccc3)cc1)nn2C1CCCN(CCOCCOCCC2CCN(c3ccc4c(c3)CN(C3CCC(=O)NC3=O)C4=O)CC2)C1` (stereo not shown) [Compound 22, 3-(5-(4-(2-(2-(2-(3-(4-amino-3-(4-phenoxyphenyl)-1H-pyrazolo[3,4-d]pyrimidin-1-yl)piperidin-1-yl)ethoxy)ethoxy)ethyl)piperidin-1-yl)-1-oxoisoindolin-2-yl)piperidine-2,6-dione], the IC50 with Mino cells was under 1000 nM. Further, the IC50 in the experiment on JeKo-1 cells was in the range of 1000 to 10000 nM. At BTK, this compound displayed a Dmax of over 90% and a DC50 of under 10 nM.
As to `Nc1ncnc2c1c(-c1ccc(Oc3ccccc3)cc1)nn2C1CCN(C(=O)N2CCN(CCN3CCN(c4ccc5c(c4)C(=O)N(C4CCC(=O)NC4=O)C5=O)CC3)CC2)CC1` (stereo not shown) [Compound 95, 5-(4-(2-(4-(4-(4-amino-3-(4-phenoxyphenyl)-1H-pyrazolo[3,4-d]pyrimidin-1-yl)piperidine-1-carbonyl)piperazin-1-yl)ethyl)piperazin-1-yl)-2-(2,6-dioxopiperidin-3-yl)isoindoline-1,3-dione], the IC50 with Mino cells lay in the range of 1000 to 10000 nM. In the experiment with JeKo-1 cells, the IC50 was under 1000 nM. Moreover, at BTK, the greatest degradation seen (Dmax) is over 90% and the DC50 was in the range of 10 to 50 nM.
With `Nc1ncnc2c1c(-c1ccc(Oc3ccccc3)cc1)nn2[C@@H]1CCCN(C(=O)N2CCC(c3ccc4c(c3)C(=O)N(C3CCC(=O)NC3=O)C4=O)CC2)C1` (stereo partly drawn) [Compound 47, 5-(1-((R)-3-(4-amino-3-(4-phenoxyphenyl)-1H-pyrazolo[3,4-d]pyrimidin-1-yl)piperidine-1-carbonyl)piperidin-4-yl)-2-(2,6-dioxopiperidin-3-yl)isoindoline-1,3-dione], the IC50 with Mino cells was over 10000 nM. Further, the IC50 in the experiment on JeKo-1 cells was over 10000 nM. Besides, on BTK, the Dmax was over 50% and the DC50 was over 50 nM.
Take `Nc1ncnc2c1c(-c1ccc(Oc3ccccc3)cc1)nn2[C@@H]1CCCN(C2CCN(C(=O)N3CCC(CCC4CCN(c5ccc6c(c5)CN(C5CCC(=O)NC5=O)C6=O)CC4)CC3)CC2)C1` (stereo partly drawn) [Compound 186, 3-(5-(4-(2-(1-((R)-3-(4-amino-3-(4-phenoxyphenyl)-1H-pyrazolo[3,4-d]pyrimidin-1-yl)-[1,4′-bipiperidine]-1′-carbonyl)piperidin-4-yl)ethyl)piperidin-1-yl)-1-oxoisoindolin-2-yl)piperidine-2,6-dione]: in the experiment on Mino cells, the IC50 was 1000 to 10000 nM. The IC50 in the experiment with JeKo-1 cells lay in the range of 1000 to 10000 nM. In addition, on BTK, the Dmax was over 75% and the half-maximal degradation concentration (DC50) lay in the range of 10 to 50 nM.
In the case of `Nc1ncnc2c1c(-c1ccc(Oc3ccccc3)cc1)nn2[C@@H]1CCCN(C(=O)N2CCC(CCCN3CCC(c4ccc5c(c4)CN(C4CCC(=O)NC4=O)C5=O)CC3)CC2)C1` (stereo partly drawn) [Compound 116, 3-(5-(1-(3-(1-((R)-3-(4-amino-3-(4-phenoxyphenyl)-1H-pyrazolo[3,4-d]pyrimidin-1-yl)piperidine-1-carbonyl)piperidin-4-yl)propyl)piperidin-4-yl)-1-oxoisoindolin-2-yl)piperidine-2,6-dione], in the experiment on Mino cells, the IC50 is over 10000 nM. In the experiment with JeKo-1 cells, the IC50 was over 10000 nM. At BTK, this compound had a Dmax of over 75% and a half-maximal degradation concentration (DC50) of over 50 nM.
For `Nc1ncnc2c1c(-c1ccc(Oc3ccccc3)cc1)nn2[C@@H]1CCCN(C2CCN(C(=O)N3CCN(CCN4CCN(c5ccc6c(c5)CN(C5CCC(=O)NC5=O)C6=O)CC4)CC3)CC2)C1` (stereo partly drawn) [Compound 176, 3-(5-(4-(2-(4-((R)-3-(4-amino-3-(4-phenoxyphenyl)-1H-pyrazolo[3,4-d]pyrimidin-1-yl)-[1,4′-bipiperidine]-1′-carbonyl)piperazin-1-yl)ethyl)piperazin-1-yl)-1-oxoisoindolin-2-yl)piperidine-2,6-dione], in the experiment on Mino cells, the IC50 is 1000 to 10000 nM. For the same compound, the IC50 with JeKo-1 cells was in the range of 1000 to 10000 nM. On BTK, this compound yielded a Dmax of over 90% and a 50% degradation concentration (DC50) of over 50 nM.
As to `Nc1ncnc2c1c(-c1ccc(Oc3ccccc3)cc1)nn2C1CCN(C(=O)N2CCC(CCCN3CCC(c4ccc5c(c4)CN(C4CCC(=O)NC4=O)C5=O)CC3)CC2)CC1` (stereo not shown) [Compound 128, 3-(5-(1-(3-(1-(4-(4-amino-3-(4-phenoxyphenyl)-1H-pyrazolo[3,4-d]pyrimidin-1-yl)piperidine-1-carbonyl)piperidin-4-yl)propyl)piperidin-4-yl)-1-oxoisoindolin-2-yl)piperidine-2,6-dione], the IC50 in the experiment on Mino cells is 1000 to 10000 nM; in the experiment on JeKo-1 cells it was over 10000 nM. At BTK, this compound came in with a Dmax of over 90%. Further, the DC50 at BTK was over 50 nM.
Turning to `Nc1ncnc2c1c(-c1ccc(Oc3ccccc3)cc1)nn2[C@@H]1CCCN(C(=O)N2CCC(CC3CCN(c4ccc5c(c4)CN(C4CCC(=O)NC4=O)C5=O)CC3)CC2)C1` (stereo partly drawn) [Compound 60, 3-(5-(4-((1-((R)-3-(4-amino-3-(4-phenoxyphenyl)-1H-pyrazolo[3,4-d]pyrimidin-1-yl)piperidine-1-carbonyl)piperidin-4-yl)methyl)piperidin-1-yl)-1-oxoisoindolin-2-yl)piperidine-2,6-dione], in the experiment on Mino cells, the IC50 is under 1000 nM. In addition, the IC50 in the experiment with JeKo-1 cells is under 1000 nM. At BTK, this compound came in with a Dmax of over 90% and a half-maximal degradation concentration (DC50) of under 10 nM.
In the case of `Nc1ncnc2c1c(-c1ccc(Oc3ccccc3)cc1)nn2[C@@H]1CCCN(C(=O)N2CCC(N3CCC(c4ccc5c(c4)C(=O)N(C4CCC(=O)NC4=O)C5=O)CC3)CC2)C1` (stereo partly drawn) [Compound 53, 5-(1′-((R)-3-(4-amino-3-(4-phenoxyphenyl)-1H-pyrazolo[3,4-d]pyrimidin-1-yl)piperidine-1-carbonyl)-[1,4′-bipiperidin]-4-yl)-2-(2,6-dioxopiperidin-3-yl)isoindoline-1,3-dione], the IC50 with Mino cells was under 1000 nM. In addition, the IC50 in the experiment on JeKo-1 cells was 1000 to 10000 nM. At BTK, this compound gave a Dmax of over 90% and a 50% degradation concentration (DC50) of under 10 nM.
`Nc1ncnc2c1c(-c1ccc(Oc3ccccc3)cc1)nn2C1CCN(C(=O)N2CCN(CCC3CCN(c4ccc5c(c4)CN(C4CCC(=O)NC4=O)C5=O)CC3)CC2)CC1` (stereo not shown) [Compound 98, 3-(5-(4-(2-(4-(4-(4-amino-3-(4-phenoxyphenyl)-1H-pyrazolo[3,4-d]pyrimidin-1-yl)piperidine-1-carbonyl)piperazin-1-yl)ethyl)piperidin-1-yl)-1-oxoisoindolin-2-yl)piperidine-2,6-dione]: the IC50 in the experiment on Mino cells lay in the range of 1000 to 10000 nM. Besides, in the experiment on JeKo-1 cells, the IC50 was in the range of 1000 to 10000 nM. At BTK, this compound gave a Dmax of over 90% and a half-maximal degradation concentration (DC50) of 10 to 50 nM.
Turning to `Nc1ncnc2c1c(-c1ccc(Oc3ccccc3)cc1)nn2C1CCN(C(=O)N2CCC(CN3CCC(c4ccc5c(c4)CN(C4CCC(=O)NC4=O)C5=O)CC3)CC2)CC1` (stereo not shown) [Compound 92, 3-(5-(1-((1-(4-(4-amino-3-(4-phenoxyphenyl)-1H-pyrazolo[3,4-d]pyrimidin-1-yl)piperidine-1-carbonyl)piperidin-4-yl)methyl)piperidin-4-yl)-1-oxoisoindolin-2-yl)piperidine-2,6-dione], the IC50 in the experiment on Mino cells was under 1000 nM. In the experiment on JeKo-1 cells, the IC50 lay within 1000 to 10000 nM. At BTK, the Dmax is over 90% and the DC50 is under 10 nM.
Regarding `Nc1ncnc2c1c(-c1ccc(Oc3ccccc3)cc1)nn2[C@@H]1CCCN(C(=O)N2CCC(CC3CCN(c4ccc5c(c4)C(=O)N(C4CCC(=O)NC4=O)C5=O)CC3)CC2)C1` (stereo partly drawn) [Compound 59, 5-(4-((1-((R)-3-(4-amino-3-(4-phenoxyphenyl)-1H-pyrazolo[3,4-d]pyrimidin-1-yl)piperidine-1-carbonyl)piperidin-4-yl)methyl)piperidin-1-yl)-2-(2,6-dioxopiperidin-3-yl)isoindoline-1,3-dione], the IC50 in the experiment on Mino cells and with JeKo-1 cells was under 1000 nM in each case. This compound also registered a Dmax at BTK of over 90%. The same compound came in with a 50% degradation concentration (DC50) at BTK of 10 to 50 nM.
On to `Nc1ncnc2c1c(-c1ccc(Oc3ccccc3)cc1)nn2[C@@H]1CCCN(C2CCN(C(=O)N3CCC(CN4CCN(c5ccc6c(c5)CN(C5CCC(=O)NC5=O)C6=O)CC4)CC3)CC2)C1` (stereo partly drawn) [Compound 170, 3-(5-(4-((1-((R)-3-(4-amino-3-(4-phenoxyphenyl)-1H-pyrazolo(3,4-d)pyrimidin-1-yl)-(1,4′-bipiperidine)-1′-carbonyl)piperidin-4-yl)methyl)piperazin-1-yl)-1-oxoisoindolin-2-yl)piperidine-2,6-dione], for which the IC50 with Mino cells and in the experiment with JeKo-1 cells was 1000 to 10000 nM each time. The same compound gave a maximal degradation (Dmax) at BTK of over 90%. This compound displayed a DC50 on BTK of 10 to 50 nM.
